The values below come from patent US7615555B2, “Piperidine derivatives as modulators of chemokine receptor CCR5” (AstraZeneca AB, priority 2004, dated 2009).

A word on the IC50: it is the point on the concentration scale where inhibition reaches its midpoint. A word on the melting point: it is the temperature of the solid-liquid transition.

The target of data set [1] is recombinant human CCR5 receptor (Homo sapiens, UniProt P51681). Kind of data set: in vitro radioligand binding assay: inhibition of MIP-1α binding. Conditions: displacement of 0.1 nM iodinated MIP-1α; membranes from Chinese hamster ovary cells expressing recombinant human CCR5; scintillation proximity; average if tested more than once. As to the method:
The ability of compounds to inhibit the binding of MIP-1α was assessed by an in vitro radioligand binding assay. Membranes were prepared from Chinese hamster ovary cells which expressed the recombinant human CCR5 receptor. These membranes were incubated with 0.1 nM iodinated MIP-1α, scintillation proximity beads and various concentrations of the compounds of the invention in 96-well plates. The amount of iodinated MIP-1α bound to the receptor was determined by scintillation counting. Competition curves were obtained for compounds and the concentration of compound which displaced 50% of bound iodinated MIP-1α was calculated (IC50).
In Table XII the results are presented as Pic50 values. A Pic50 value is the negative log (to base 10) of the IC50 result, so an IC50 of 1 μM (that is 1×10^−6M) gives a Pic50 of 6. If a compound was tested more than once then the data below is an average of the probative tests results.
A general note: Scintillation proximity formats need no separation of bound from free tracer.

Sequence of recombinant human CCR5 receptor (P51681 whole entry): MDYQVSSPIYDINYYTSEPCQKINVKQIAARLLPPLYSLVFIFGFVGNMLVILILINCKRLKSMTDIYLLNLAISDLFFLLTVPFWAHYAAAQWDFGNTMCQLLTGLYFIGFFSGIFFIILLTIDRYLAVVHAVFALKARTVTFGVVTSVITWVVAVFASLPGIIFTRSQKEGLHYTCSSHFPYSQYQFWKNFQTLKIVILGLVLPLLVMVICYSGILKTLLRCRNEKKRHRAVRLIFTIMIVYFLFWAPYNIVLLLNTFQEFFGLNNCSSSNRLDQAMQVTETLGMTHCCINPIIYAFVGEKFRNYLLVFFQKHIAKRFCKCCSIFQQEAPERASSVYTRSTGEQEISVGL

In the case of `CCS(=O)(=O)N1CCN(C(CCN2CCC(n3cnc4cc(S(C)(=O)=O)ccc43)CC2)c2ccccc2)CC1` (stereo not shown) [Table I Compound 1, 1-(1-{3-[4-(ethylsulfonyl)piperazin-1-yl]-3-phenylpropyl}piperidin-4-yl)-5-(methylsulfonyl)-1H-benzimidazole], the IC50 in data set [1] is 251 nM. Compound `CS(=O)(=O)c1ccc2c(c1)ncn2C1CCN(CC[C@@H](c2cc(F)cc(F)c2)C2CCN(S(C)(=O)=O)CC2)CC1` [Table II Compound 5, 1-(1-{(3R)-3-(3,5-difluorophenyl)-3-[1-(methylsulfonyl)piperidin-4-yl]propyl}piperidin-4-yl)-5-(methylsulfonyl)-1H-benzimidazole] registered a melting point of 161 °C. Moreover, the IC50 in data set [1] is 0.501 nM. With `Cc1nnc(C(C)C)n1C1CCN(CC[C@@H](c2ccccc2)N2CCN(S(=O)(=O)c3ccccc3)CC2)CC1` [Table II Compound 1, 1-{(1S)-3-[4-(3-isopropyl-5-methyl-4H-1,2,4-triazol-4-yl)piperidin-1-yl]-1-phenylpropyl}-4-(phenylsulfonyl)piperazine], the IC50 in data set [1] was 31.6 nM.
